Values of other authors as cited in patent publication US20090233840A1, “Modified Dynorphin Expression in Animals and Identification of Compounds for Treatment of Obesity and Diabetes” (priority 2004, published 2009).

Legend:
[1] = tested on: cultured cortical cells from Sprague Dawley rats; settings: comparable to that induced by NMDA; resistant to naloxone
[2] = administered ICV
[3] = intracerebroventricularly
[4] = not affected by naloxone or norBNI

dynorphin A (2-17)
intracellular calcium concentration [1]: increase in intracellular calcium concentration

dynorphin A (YGGFLRRIRPKLKWDNQ; Dynorphin A(1-17); UniProt P01213 207-223, looked up) [[Leu]-enkephalin-containing opioid peptide encoded by the preprodynorphin gene]
analgesic efficacy [2]: ineffective
analgesic effect [3]: moderate analgesic effect

Dyn A(1-13) (YGGFLRRIRPKLK; Dynorphin A(1-13); UniProt P01213 207-219, looked up, fragment)
potency in writhing assay [4]: very potent
